Assay type in all cases: cell-based
In test [1] the test system is HTT mRNA. Kind of test: Splicing RT-qPCR assay (THP), Table 2A. The following applies: Table 2A (THP); for AC50: AJ mRNA increase, read-out: HTT AJ (increase in alternative junction mRNA, AC50); for IC50: CJ mRNA decrease, read-out: HTT CJ (decrease in canonical junction mRNA, IC50). Background: In qPCR the cycle at which signal appears reflects the starting amount.
Test [2] deals with MYB mRNA. Briefly: Splicing RT-qPCR assay (THP), Table 2A. The conditions noted are these: Table 2A (THP); for AC50: AJ mRNA increase, read-out: MYB AJ (increase in alternative junction mRNA, AC50); for IC50: CJ mRNA decrease, read-out: MYB CJ (decrease in canonical junction mRNA, IC50).
For test [3], the system named is MYB mRNA. Kind of test: Gene panel canonical junction qPCR assay, decrease in CJ mRNA, Table 3. The conditions noted are these: decrease in canonical junction (CJ) mRNA, gene panel qPCR, Table 3. In outline:
(§1)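 Eleven-point dose responses from 10 uM final, 24 h, DMSO ≤0.25%, in A673 or K562 cells. Relative quantification by 2^(−ΔΔCt) against housekeeper and vehicle was converted to percent response over fixed ΔCt windows and fitted to yield IC50.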

In test [4] the test system is HTT mRNA. The test is described as above. The following applies: decrease in canonical junction (CJ) mRNA, gene panel qPCR, Table 3. In outline: as §1
The subject of test [5] is SH-SY5Y (human neuroblastoma) cells. Kind of test: Cell viability, Cell Titer Glo 2.0 assay. The following applies: read-out: Viability SHSY5Y.3 GI50. The method in brief: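 Following a 72 h incubation (37 °C, 5% CO2, 0.1% DMSO final), compound toxicity toward SH-SY5Y cells was quantified by CellTiter-Glo 2.0.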
A general note: In ATP-based viability assays light output follows the ATP content of the culture.

Structures are written as SMILES. Counter-ions that a name gives are not always drawn. Where only a bound is given, the exact number is not on record here.

The text below walks through data of patent US20260285853A1, “COMPOUNDS AND METHODS FOR MODULATING SPLICING” (REMIX THERAPEUTICS INC., priority 2023, published 2026).

Usually AC50 stands for the midpoint of the concentration-response curve, whichever way the signal moves. Usually IC50 stands for the midpoint of a concentration-inhibition curve. As a reminder, the GI50 is the concentration giving 50% growth inhibition. Consider `CCNC1CCN(c2ccc(C(=O)Nc3cc(CC(N)=O)c4nc(C)cn4c3)c3nn(C)cc23)CC1` [Compound 340, N-[8-(2-amino-2-oxo-ethyl)-2-methyl-imidazo[1,2-a]pyridin-6-yl]-4-[4-(ethylamino)-1-piperidyl]-2-methyl-indazole-7-carboxamide], for which the AC50 in the test on HTT mRNA [1] and with MYB mRNA [2] was over 10 µM in each case. Moreover, the IC50 with HTT mRNA [1], in the test with MYB mRNA [2], in the test with MYB mRNA [3] and in the test on HTT mRNA [4] was over 10 µM throughout. The GI50 in test [5] was over 10 µM.

As to `CCNC1CCN(c2ccc(C(=O)Nc3cc(CC(=O)NC)c4nc(C)cn4c3)c3nn(C)cc23)CC1` [Compound 341, 4-(4-(ethylamino)piperidin-1-yl)-2-methyl-N-(2-methyl-8-(2-(methylamino)-2-oxoethyl)imidazo[1,2-a]-pyridin-6-yl)-2H-indazole-7-carboxamide bis(2,2,2-trifluoroacetate)], the AC50 with HTT mRNA [1] was over 10 µM; in the test on MYB mRNA [2], 1 to 10 µM. For the same compound, the IC50 in the test on HTT mRNA [1] is 1 to 10 µM; with MYB mRNA [2], over 10 µM; in the test on MYB mRNA [3] it was over 10 µM; in the test with HTT mRNA [4], 1 to 10 µM. Besides, the GI50 in test [5] was over 10 µM.

Consider `CNC1CCN(c2cc(F)c(C(=O)Nc3cn4cc(C)nc(C)c4n3)c3nn(C)cc23)CC1` [Compound 342, N-(6,8-dimethylimidazo[1,2-a]pyrazin-2-yl)-6-fluoro-2-methyl-4-[4-(methylamino)-1-piperidyl]-indazole-7-carbox-amide], for which the AC50 with HTT mRNA [1] is 1 to 10 µM; in the test on MYB mRNA [2], under 0.1 µM. Moreover, the IC50 is 1 to 10 µM in the test with HTT mRNA [1], under 0.1 µM in the test with MYB mRNA [2], under 0.1 µM in the test on MYB mRNA [3] and 1 to 10 µM in the test with HTT mRNA [4]. For the same compound, in test [5], the GI50 lay in the range of 1 to 10 µM.

Turning to `CCNC1CCN(c2cc(F)c(C(=O)Nc3cn4cc(C)nc4c(F)c3OCC)c3nn(C)cc23)CC1` [Compound 343, N-(7-ethoxy-8-fluoro-2-methylimidazo [1,2-a]pyridin-6-yl)-4-(4-(ethylamino)piperidin-1-yl)-6-fluoro-2-methyl-2H-indazole-7-carboxamide hydrochloride], the AC50 in the test with HTT mRNA [1] and in the test on MYB mRNA [2] was under 0.1 µM each time. In addition, the IC50 in the test on HTT mRNA [1], in the test on MYB mRNA [2], with MYB mRNA [3] and in the test with HTT mRNA [4] was under 0.1 µM in each case. Also, the GI50 in test [5] was under 0.1 µM.

As to `CCNC1CCN(c2cc(F)c(C(=O)Nc3cc4c(C)nc(C)cn4c3)c3nn(C)cc23)CC1` [Compound 344, N-(1,3-dimethylpyrrolo[1,2-a]-pyrazin-7-yl)-4-[4-(ethylamino)-1-piperidyl]-6-fluoro-2-methyl-indazole-7-carboxamide], the AC50 in the test on HTT mRNA [1] was over 10 µM; in the test on MYB mRNA [2] it was 0.1 to 1 µM. For the same compound, the IC50 is over 10 µM in the test on HTT mRNA [1], 0.1 to 1 µM with MYB mRNA [2], 0.1 to 1 µM with MYB mRNA [3] and over 10 µM in the test on HTT mRNA [4]. Moreover, in test [5], the GI50 lay within 1 to 10 µM.

Regarding `CCNC1CCN(c2ccc(C(=O)Nc3cc4c(C)nc(C)cn4c3)c3nn(C)cc23)CC1` [Compound 345, N-(1,3-dimethylpyrrolo[1,2-a]pyrazin-7-yl)-4-[4-(ethylamino)-1-piperidyl]-2-methyl-indazole-7-carboxamide], the AC50 in the test with HTT mRNA [1] and in the test with MYB mRNA [2] was over 10 µM in each case. Further, the IC50 with HTT mRNA [1] was over 10 µM; in the test with MYB mRNA [2] it was 1 to 10 µM; in the test with MYB mRNA [3] it was 1 to 10 µM; in the test on HTT mRNA [4] it was over 10 µM. In test [5], the GI50 is 1 to 10 µM.

Turning to `CCNC1CCN(c2cc(F)c(C(=O)Nc3cn4cc(C5CC5)nc(C)c4n3)c3nn(C)cc23)CC1` [Compound 346, N-(6-cyclopropyl-8-methyl-imidazo[1,2-a]pyrazin-2-yl)-4-(4-(ethylamino)-piperidin-1-yl)-6-fluoro-2-methyl-2H-indazole-7-carboxamide bis(2,2,2-trifluoroacetate)], the half-maximal activity concentration (AC50) with HTT mRNA [1] and with MYB mRNA [2] was over 10 µM each time. For the same compound, the IC50 in the test on HTT mRNA [1], with MYB mRNA [2], in the test on MYB mRNA [3] and in the test on HTT mRNA [4] was over 10 µM each time. In addition, the GI50 in test [5] is 1 to 10 µM.

On to `Cc1cn2cc(NC(=O)c3c(F)cc(N4CCC(N)CC4)c4cn(C)nc34)nc2c(C)n1` [Compound 347, 4-(4-aminopiperidin-1-yl)-N-(6,8-dimethylimidazo[1,2-a]pyrazin-2-yl)-6-fluoro-2-methyl-2H-indazole-7-carboxamide 2,2,2-trifluoroacetate], for which the AC50 in the test with HTT mRNA [1] was 1 to 10 µM; in the test on MYB mRNA [2], under 0.1 µM. The IC50 in the test on HTT mRNA [1] is 1 to 10 µM; in the test with MYB mRNA [2] it was under 0.1 µM; in the test with MYB mRNA [3], under 0.1 µM; in the test on HTT mRNA [4] it was 1 to 10 µM. For the same compound, the GI50 in test [5] lay in the range of 1 to 10 µM.

Regarding `CCNC1CCN(c2cc(Cl)c(C(=O)Nc3cn4cc(C)nc(C)c4n3)c3nn(C)cc23)CC1` [Compound 348, 6-chloro-N-(6,8-dimethylimidazo-[1,2-a]pyrazin-2-yl)-4-[4-(ethylamino)-1-piperidyl]-2-methyl-indazole-7-carboxamide], the AC50 with HTT mRNA [1] is over 10 µM; in the test on MYB mRNA [2] it was 0.1 to 1 µM. The IC50 in the test with HTT mRNA [1] is over 10 µM; with MYB mRNA [2] it was 1 to 10 µM; in the test on MYB mRNA [3], 1 to 10 µM; in the test on HTT mRNA [4], over 10 µM. The GI50 in test [5] was in the range of 1 to 10 µM.

For `Cc1cn2cc(NC(=O)c3c(F)cc(N4CCC(NC5CCC5)CC4)c4cn(C)nc34)nc2c(C)n1` [Compound 349, 4-[4-(cyclobutylamino)-1-piperid-yl]-N-(6,8-dimethyl-imidazo [1,2-a]-pyrazin-2-yl)-6-fluoro-2-methyl-indazole-7-carbox-amide], the results for the AC50 in the test on HTT mRNA [1] and in the test with MYB mRNA [2] were over 10 µM and under 0.1 µM, respectively. Moreover, the IC50 in the test on HTT mRNA [1] is over 10 µM; in the test with MYB mRNA [2], under 0.1 µM; in the test with MYB mRNA [3] it was under 0.1 µM; in the test with HTT mRNA [4], over 10 µM. Also, in test [5], the GI50 was in the range of 0.1 to 1 µM.

In the case of `CCNC1CCN(c2ccc(C(=O)Nc3cn4cc(CF)nc(C)c4n3)c3nn(C)cc23)CC1` [Compound 350, 4-[4-(ethylamino)-1-piperidyl]-N-[6-(fluoromethyl)-8-methyl-imidazo[1,2-a]pyrazin-2-yl]-2-methyl-indazole-7-carboxamide 2,2,2-trifluoroacetic acid], the results for the AC50 in the test with HTT mRNA [1] and in the test with MYB mRNA [2] were over 10 µM and 0.1 to 1 µM, respectively. Besides, the IC50 is over 10 µM in the test on HTT mRNA [1], 0.1 to 1 µM with MYB mRNA [2], 0.1 to 1 µM in the test with MYB mRNA [3] and over 10 µM with HTT mRNA [4]. Besides, the GI50 in test [5] was in the range of 1 to 10 µM.

As to `CCNC1CCN(c2cc(F)c(C(=O)Nc3cn4cc(C)nc(OC)c4n3)c3nn(C)cc23)CC1` [Compound 351, 4-[4-(ethyl-amino)-1-piperidyl]-6-fluoro-N-(8-methoxy-6-methyl-imidazo[1,2-a]-pyrazin-2-yl)-2-methyl-indazole-7-carboxamide], the AC50 in the test on HTT mRNA [1] and with MYB mRNA [2] was over 10 µM throughout. The IC50 is over 10 µM in the test with HTT mRNA [1], 1 to 10 µM with MYB mRNA [2], 1 to 10 µM with MYB mRNA [3] and over 10 µM in the test on HTT mRNA [4]. For the same compound, the GI50 in test [5] is 1 to 10 µM.

Turning to `CCNC1CCN(c2ccc(C(=O)Nc3cc(Oc4ccc(C#N)cc4)c4nc(C)cn4c3)c3nn(C)cc23)CC1` [Compound 352, N-[8-(4-cyanophenoxy)-2-methyl-imidazo[1,2-a]pyridin-6-yl]-4-[4-(ethylamino)-1-piperidyl]-2-methylindazole-7-carboxamide], the AC50 with HTT mRNA [1] is over 10 µM; in the test on MYB mRNA [2], under 0.1 µM. The IC50 in the test on HTT mRNA [1] was 1 to 10 µM; in the test with MYB mRNA [2], under 0.1 µM; in the test with MYB mRNA [3] it was under 0.1 µM; in the test with HTT mRNA [4] it was 1 to 10 µM. The GI50 in test [5] is 0.1 to 1 µM.

In the case of `CCNC1CCN(c2ccc(C(=O)Nc3cc(Oc4cccnc4)c4nc(C)cn4c3)c3nn(C)cc23)CC1` [Compound 353, 4-[4-(ethylamino)-1-piperidyl]-2-methyl-N-[2-methyl-8-(3-pyridyloxy)-imidazo[1,2-a]-pyridin-6-yl]-indazole-7-carboxamide], the figures for the AC50 in the test with HTT mRNA [1] and in the test with MYB mRNA [2] were 1 to 10 µM and 0.1 to 1 µM, respectively. The IC50 in the test on HTT mRNA [1] lay in the range of 1 to 10 µM; in the test on MYB mRNA [2], 0.1 to 1 µM; with MYB mRNA [3] it was 0.1 to 1 µM; in the test with HTT mRNA [4] it was 1 to 10 µM. The GI50 in test [5] is over 10 µM.

For the compound `Cc1cn2cc(NC(=O)c3ccc(N4CCC(NC5(C)CC5)CC4)c4cn(C)nc34)cc(F)c2n1` [Compound 355, N-(8-fluoro-2-methyl-imidazo[1,2-a]-pyridin-6-yl)-2-methyl-4-[4-[(1-methyl-cyclopropyl)amino]-1-piperidyl]indazole-7-carboxamide], the AC50 with HTT mRNA [1] was 0.1 to 1 µM; with MYB mRNA [2], under 0.1 µM. In addition, the IC50 is 0.1 to 1 µM with HTT mRNA [1], under 0.1 µM with MYB mRNA [2], under 0.1 µM in the test with MYB mRNA [3] and 0.1 to 1 µM in the test with HTT mRNA [4]. For the same compound, the GI50 in test [5] lay in the range of 0.1 to 1 µM.
